Measured values: patent US10550105B2 (Ribon Therapeutics Inc., priority 2018, dated 2020)
pIC50: −log10 of the molar value.

test system: NCI-H1373 lung cancer cells; assay: Inhibition of cancer cell growth in NCI-H1373 lung cancer cells (FIG. 2); assay type: cell-based, human; conditions: not given

With `N#Cc1ccc(N2CCN(C(=O)c3cccc(OCCOc4cccc5c4CN(c4cn[nH]c(=O)c4C(F)(F)F)C5)c3)CC2)nc1` [Example 39, 6-[4-([3-[2-([2-[6-Oxo-5-(trifluoromethyl)-1,6-dihydropyridazin-4-yl]-2,3-dihydro-1H-isoindol-4-yl]oxy)ethoxy]phenyl]carbonyl)piperazin-1-yl]pyridine-3-carbonitrile] the “growth of NCI-H1373 lung cancer cells” value was “dose-dependent decrease in growth”.

molecular target: T1, PARP7 (Homo sapiens (Human), UniProt Q7Z3E1); assay: Enzymatic assay for inhibition of PARP7: TR-FRET displacement of biotinylated Probe A from the TIPARP active site; assay type: binding; conditions: Table A-1
T1 sequence (Q7Z3E1 whole entry): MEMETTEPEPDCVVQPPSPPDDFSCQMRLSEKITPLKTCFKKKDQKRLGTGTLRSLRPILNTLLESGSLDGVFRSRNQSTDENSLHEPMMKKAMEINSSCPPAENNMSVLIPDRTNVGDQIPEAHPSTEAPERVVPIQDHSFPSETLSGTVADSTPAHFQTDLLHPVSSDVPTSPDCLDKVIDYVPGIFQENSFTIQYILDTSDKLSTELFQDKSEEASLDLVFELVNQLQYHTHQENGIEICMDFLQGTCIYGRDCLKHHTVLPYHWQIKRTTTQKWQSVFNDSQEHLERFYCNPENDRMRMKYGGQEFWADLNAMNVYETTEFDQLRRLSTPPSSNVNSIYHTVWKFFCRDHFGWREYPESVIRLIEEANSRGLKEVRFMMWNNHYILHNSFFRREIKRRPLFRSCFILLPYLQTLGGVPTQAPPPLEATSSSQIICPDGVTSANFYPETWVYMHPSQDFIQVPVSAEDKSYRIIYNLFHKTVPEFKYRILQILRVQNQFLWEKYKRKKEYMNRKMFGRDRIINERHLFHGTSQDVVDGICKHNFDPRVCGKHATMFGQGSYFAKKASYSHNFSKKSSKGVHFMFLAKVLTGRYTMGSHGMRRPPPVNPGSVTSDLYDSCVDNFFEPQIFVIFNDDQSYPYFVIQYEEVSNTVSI
How it was run: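 Read-out: 665/615 nm emission ratio (ex 320 nm, 90 μs delay) indexing bound TIPARP–Probe A. Final incubation 30 min, 25° C; compounds in dose response. Curve fit of % inhibition vs concentration; Hill slope floating or fixed at 1 (3-parameter).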

`N#Cc1ccc(N2CCN(C(=O)C[C@H]3CC[C@@H]([C@@H]4CCCN4c4cn[nH]c(=O)c4C(F)(F)F)O3)CC2)nc1` [Example 141B, 6-(4-[2-[(2R,5S)-5-[(2S)-1-[6-oxo-5-(trifluoromethyl)-1,6-dihydropyridazin-4-yl]pyrrolidin-2-yl]oxolan-2-yl]acetyl]piperazin-1-yl)pyridine-3-carbonitrile] and `N#Cc1ccc(N2CCN(C(=O)C[C@@H]3CC[C@@H]([C@@H]4CCCN4c4cn[nH]c(=O)c4C(F)(F)F)O3)CC2)nc1` [Example 141A, 6-(4-[2-[(2S,5S)-5-[(2S)-1-[6-oxo-5-(trifluoromethyl)-1,6-dihydropyridazin-4-yl]pyrrolidin-2-yl]oxolan-2-yl]acetyl]piperazin-1-yl)pyridine-3-carbonitrile] cannot be ordered by pIC50: greater than 7.00 for the first, greater than 7.00 for the second.

Compared with `N#Cc1ccc(N2CCN(C(=O)c3cccc(OCCOc4cccc5c4CN(c4cn[nH]c(=O)c4C(F)(F)F)C5)c3)CC2)nc1` [Example 39, 6-[4-([3-[2-([2-[6-Oxo-5-(trifluoromethyl)-1,6-dihydropyridazin-4-yl]-2,3-dihydro-1H-isoindol-4-yl]oxy)ethoxy]phenyl]carbonyl)piperazin-1-yl]pyridine-3-carbonitrile], `N#Cc1ccc(N2CCN(C(=O)c3ccc(OC[C@H]4c5ccccc5CN4c4cn[nH]c(=O)c4C(F)(F)F)cc3)CC2)nc1` (single isomer, unassigned) [Example 35 Isomer B] is lower in pIC50: greater than 7.00 for the first, 6.00 to 7.00 for the second. The first is the more potent here.

`CN1CCC(Oc2cccc3c2CN(c2cn[nH]c(=O)c2Cl)C3)CC1` [Example 257, 4-Chloro-5-(4-((1-methylpiperidin-4-yl)oxy)isoindolin-2-yl)pyridazin-3(2H)-one] and `CN1CCN(CCOc2cccc3c2CN(c2cn[nH]c(=O)c2Cl)C3)CC1` [Example 255, 4-Chloro-5-(4-(2-(4-methylpiperazin-1-yl)ethoxy)isoindolin-2-yl)pyridazin-3(2H)-one] cannot be ordered by pIC50: no more than 6.00 for the first, no more than 6.00 for the second.

First: O=c1[nH]ncc(N2Cc3ccc(OC4CCNCC4)cc3C2)c1C(F)(F)F [Example 150, 5-[5-(Piperidin-4-yloxy)-2,3-dihydro-1H-isoindol-2-yl]-4-(trifluoromethyl)-2,3-dihydropyridazin-3-one]
Second: Cc1c(N2Cc3ccc(OC4CCNCC4)cc3C2)cn[nH]c1=O [Example 187, 4-Methyl-5-(5-(piperidin-4-yloxy)isoindolin-2-yl)pyridazin-3(2H)-one]
The pIC50 of the first is higher: greater than 7.00 for the first, no more than 6.00 for the second.

`N#Cc1ccc(NCCC(=O)Nc2cncc(OCC3c4ccccc4CN3c3cn[nH]c(=O)c3C(F)(F)F)c2)nc1` (centres unmarked) [Example 63, 3-[(5-cyanopyridin-2-yl)amino]-N-[5-([2-[6-oxo-5-(trifluoromethyl)-1,6-dihydropyridazin-4-yl]-2,3-dihydro-1H-isoindol-1-yl]methoxy)pyridin-3-yl]propanamide] and `N#Cc1cnc(N2CCN(C(=O)c3cccc(OC[C@@H]4c5ccccc5CN4c4cn[nH]c(=O)c4C(F)(F)F)c3)CC2)nc1` [Example 365, (S)-2-(4-(3-((2-(6-oxo-5-(trifluoromethyl)-1,6-dihydropyridazin-4-yl)isoindolin-1-yl)methoxy)benzoyl)piperazin-1-yl)pyrimidine-5-carbonitrile] cannot be ordered by pIC50: greater than 7.00 for the first, greater than 7.00 for the second.

`O=C(C[C@@H]1CC[C@@H]([C@@H]2CCCN2c2cn[nH]c(=O)c2C(F)(F)F)O1)N1CCN(c2ncc(Cl)cn2)CC1` [Example 147A, 5-[(2S)-2-[(2S,5S)-5-[2-[4-(5-chloropyrimidin-2-yl)piperazin-1-yl]-2-oxoethyl]oxolan-2-yl]pyrrolidin-1-yl]-4-(trifluoromethyl)-2,3-dihydropyridazin-3-one] and `N#Cc1ccc(N2CCN(C(=O)CCCOC[C@@H]3CCCN3c3cn[nH]c(=O)c3C(F)(F)F)CC2)nc1` [Example 77, 6-[4-(4-[[(2S)-1-[6-oxo-5-(trifluoromethyl)-1,6-dihydropyridazin-4-yl]pyrrolidin-2-yl]methoxy]butanoyl)piperazin-1-yl]pyridine-3-carbonitrile] cannot be ordered by pIC50: greater than 7.00 for the first, greater than 7.00 for the second.

`O=c1[nH]ncc(N2Cc3cccc(NC4CCOCC4)c3C2)c1C(F)(F)F` [Example 290, 5-(4-((Tetrahydro-2H-pyran-4-yl)amino)isoindolin-2-yl)-4-(trifluoromethyl)pyridazin-3(2H)-one] and `O=c1[nH]ncc(N2Cc3nccc(OCCN4CCOCC4)c3C2)c1C(F)(F)F` [Example 10, 5-[4-[2-(morpholin-4-yl)ethoxy]-5H,6H,7H-pyrrolo[3,4-b]pyridin-6-yl]-4-(trifluoromethyl)-2,3-dihydropyridazin-3-one] fall in the same range of pIC50: 6.00 to 7.00 for the first, 6.00 to 7.00 for the second.

`[2H]C1([2H])N(C(=O)CCOC[C@H](C)Oc2cn[nH]c(=O)c2C(F)(F)F)C([2H])([2H])C([2H])([2H])N(c2ccc(C#N)cn2)C1([2H])[2H]` [Example 714, (S)-6-(4-(3-(2-((6-Oxo-5-(trifluoromethyl)-1,6-dihydropyridazin-4-yl)oxy)propoxy)propanoyl)piperazin-1-yl-2,2,3,3,5,5,6,6-d8)nicotinonitrile] and `C[C@@H](COCCC(=O)N1CCN(c2ccc(C#N)cn2)CC1)Sc1cn[nH]c(=O)c1C(F)(F)F` [Example 655, (S)-6-(4-(3-(2-((6-Oxo-5-(trifluoromethyl)-1,6-dihydropyridazin-4-yl)thio)propoxy)propanoyl)piperazin-1-yl)nicotinonitrile] cannot be ordered by pIC50: greater than 7.00 for the first, greater than 7.00 for the second.

`O=C(CCOCCNc1cn[nH]c(=O)c1C(F)(F)F)N1CCN(c2ncc(C(F)(F)F)cn2)CC1` [Example 505, 5-[[2-(3-Oxo-3-[4-[5-(Trifluoromethyl)pyrimidin-2-yl]piperazin-1-yl]propoxy)ethyl]amino]-4-(trifluoromethyl)-2,3-dihydropyridazin-3-one] and `C[C@@H](CCOCCC(=O)N1CCN(c2ncc(C(F)(F)F)cn2)CC1)Nc1cn[nH]c(=O)c1C(F)(F)F` [Example 640, (S)-5-((4-(3-Oxo-3-(4-(5-(trifluoromethyl)pyrimidin-2-yl)piperazin-1-yl)propoxy)butan-2-yl)amino)-4-(trifluoromethyl)pyridazin-3(2H)-one] cannot be ordered by pIC50: greater than 7.00 for the first, greater than 7.00 for the second.

`COc1cccc2c1CN(c1cn[nH]c(=O)c1Cl)C2` [Example 153, 4-Chloro-5-(4-methoxyisoindolin-2-yl)pyridazin-3(2H)-one] and `Cc1c(N2Cc3cccc(OCCO)c3C2)cn[nH]c1=O` [Example 171, 5-(4-(2-Hydroxyethoxy)isoindolin-2-yl)-4-methylpyridazin-3(2H)-one] cannot be ordered by pIC50: 6.00 to 7.00 for the first, no more than 6.00 for the second.

`O=C(c1cncc(OCC2c3ccccc3CN2c2cn[nH]c(=O)c2C(F)(F)F)c1)N1CCN(c2ncc(C(F)(F)F)cn2)CC1` (centres unmarked) [Example 378, 4-(Trifluoromethyl)-5-(1-(((5-(4-(5-(trifluoromethyl)pyrimidin-2-yl)piperazine-1-carbonyl)pyridin-3-yl)oxy)methyl)isoindolin-2-yl)pyridazin-3(2H)-one] and `O=C(CCOC[C@H](Cc1cccnc1)Nc1cn[nH]c(=O)c1C(F)(F)F)N1CCN(c2ncc(C(F)(F)F)cn2)CC1` [Example 637, (S)-5-((1-(3-Oxo-3-(4-(5-(trifluoromethyl)pyrimidin-2-yl)piperazin-1-yl)propoxy)-3-(pyridin-3-yl)propan-2-yl)amino)-4-(trifluoromethyl)pyridazin-3(2H)-one] cannot be ordered by pIC50: greater than 7.00 for the first, greater than 7.00 for the second.

First: O=c1[nH]ncc(N2Cc3c(F)ccc(OCCO)c3C2)c1C(F)(F)F [Example 283, 5-(4-Fluoro-7-(2-hydroxyethoxy)isoindolin-2-yl)-4-(trifluoromethyl)pyridazin-3(2H)-one]
Second: CO[C@H]1C[C@@H](COCCC(=O)N2CCN(c3ccc(C#N)cn3)CC2)N(c2cn[nH]c(=O)c2C(F)(F)F)C1 [Example 122, 6-[4-(3-[[(2S,4S)-4-methoxy-1-[6-oxo-5-(trifluoromethyl)-1,6-dihydropyridazin-4-yl]pyrrolidin-2-yl]methoxy]propanoyl)piperazin-1-yl]pyridine-3-carbonitrile]
The pIC50 of the first is lower: 6.00 to 7.00 for the first, greater than 7.00 for the second.

Compared with `N#Cc1ccc(N2CCN(C(=O)C[C@H]3CC[C@H](COc4cn[nH]c(=O)c4C(F)(F)F)N3)CC2)nc1` [Example 638, 6-(4-(2-((2R,5R)-5-(((6-Oxo-5-(trifluoromethyl)-1,6-dihydropyridazin-4-yl)oxy)methyl)pyrrolidin-2-yl)acetyl)piperazin-1-yl)nicotinonitrile], `C[C@@H](COCCC(=O)N1CCN(c2ncc(C#N)cn2)CC1)Oc1cn[nH]c(=O)c1C(F)(F)F` [Example 579, 2-(4-[3-[(2S)-2-[[6-Oxo-5-(trifluoromethyl)-1,6-dihydropyridazin-4-yl]oxy]propoxy]propanoyl]piperazin-1-yl)pyrimidine-5-carbonitrile] is higher in pIC50: 6.00 to 7.00 for the first, greater than 7.00 for the second.

In the case of `C[C@@H](COCCC(=O)N1CCC(Nc2ncc(C(F)(F)F)cn2)C1)Nc1cn[nH]c(=O)c1C(F)(F)F` (stereo partly drawn) [Example 710, 5-(((2S)-1-(3-Oxo-3-(3-((5-(trifluoromethyl)pyrimidin-2-yl)amino)pyrrolidin-1-yl)propoxy)propan-2-yl)amino)-4-(trifluoromethyl)pyridazin-3(2H)-one], the pIC50 was 6.00 to 7.00.

molecular target: T1, PARP7; assay: Inhibition of PARP7 (Table A-1); assay type: biochemical; conditions: comparison of separated isomers, see Table A-1

For `N#Cc1ccc(N2CCN(C(=O)C[C@H]3CC[C@@H]([C@@H]4CCCN4c4cn[nH]c(=O)c4C(F)(F)F)O3)CC2)nc1` [Example 141B, 6-(4-[2-[(2R,5S)-5-[(2S)-1-[6-oxo-5-(trifluoromethyl)-1,6-dihydropyridazin-4-yl]pyrrolidin-2-yl]oxolan-2-yl]acetyl]piperazin-1-yl)pyridine-3-carbonitrile], the “relative potency of the enantiomers / diastereomers” value was “more potent enantiomer”.
